Reference: patent publication US5776957A, “Nornicotine enantiomers for use as a treatment for dopamine related conditions and disease states” (The University of Kentucky Research Foundation, priority 1996, dated 1998)
“Also recorded” adds a separate entry of the source. Like-named read-outs stand apart in the source and are kept apart here. Each block holds one molecule with its values, some of them ahead of it.

Tests used:
[1] = test system: [3H]DA-preloaded rat striatal slices (nicotinic receptors); assay: [3H]overflow (DA release) from [3H]DA-preloaded rat striatal slices; type: cell-based
Protocol: In vitro pharmacological effects of NIC are generally investigated using either striatal slices or synaptosome preparations preloaded with [^3 H] DA. NIC-evoked [^3 H]overflow is obtained routinely in the presence of nomifensine (10 μM; a DA uptake inhibitor) and for pargyline (10 μM, a monoamine oxidase inhibitor) in the superfusion buffer, such that [^3 H]overflow represents primarily [^3 H]DA rather than [H]DA-metabolites (Zumstein et al., 1981, Hoffmann and Cubeddu, 1982, Dwoskin and Zahniser, 1986, Rapier et al., 1988), and for this reason, [^3 H]overflow also will be referred to as [^3 H] DA release in the proposal.
The present studies use striatal slices superfused with various concentrations of NIC or norNIC for prolonged periods.
FIG. 4. […] Insets illustrate the response to the low concentration range. […] NIC exposure indicated by the bar under time course. Note: 1-min sample collection period. […] N=4 rats.
Rat striatal slices were depolarized with 10 μM NIC, 20 mM K+or 1 Hz, 60 pulses or 3 Hz, 180 pulses electrical field stimulation. […] N=4.
MEC or DHβE was included in the superfusion buffer for 60 min prior to the addition of NIC, and superfusion continued for 60 min in the presence of NIC+antagonist.

[2] = NIC and metabolites in rat brain after s.c. injection of radiolabelled NIC; type: in vivo
Text: NIC metabolism studies involving HPLRC analysis invariably utilize NIC with a radiolabel (i.e., [^3 H], [^14 C] or [^11 C]) incorporated in the methyl group. However N-demethylated NIC metabolites (norNIC and norCOT) cannot be detected after injection of such radionuclides, since the label is lost in the formation of these metabolites. NIC and four NIC metabolites have recently been detected in rat brain 4 hr after s.c. injection of [2'-^14 C]NIC (FIG. 3, Table I). Three of these metabolites have been identified as COT, norNIC and norCOT. A fourth minor metabolite (Peak B) has not been completely identified but appears to be an N-demethylated metabolite, since it is not detected in the [^3 H-N-methyl]NIC studies.
COT, and therefore, is unlikely to originate from COT N-demethylation. 3-HydroxyCOT and its glucuronide conjugate were not detected as metabolites of either NIC or COT in brain, even though these are major biotransformation products in the periphery (Crooks, 1993).
It appears that NIC metabolites which accumulate with a time course that correlates with the development of behavioral sensitization to NIC have a role in eliciting sensitization to NIC. The inventors have detected NIC, COT, norNIC and norCOT in brain 4 hr following acute s.c. injection of (±)[2'-^14 C]NIC. S(-) [^3 H] -N-methyl]NIC is unsuitable for studying brain metabolism of NIC, since nor-metabolites (i.e., demethylated metabolites) cannot be detected due to [^3 H]-loss during metabolism (Crooks et al., 1995b, AP 7). Thus, commercially available (±)[2'-^14 C]NIC was used to determine NIC metabolites present in brain. This form of radiolabelled NIC provides a metabolically stable [^14 C]-label which allows measurement of all potential NIC metabolites.
A second "metabolite" (Peak A, FIG. 2) was also detected at each time point and most likely results from a combination of metabolic cleavage of the N-methyl group and dissociated-[^3 H], i e, Peak A represents an oxidized 1-carbon unit and indicates the extent of NIC N-demethylation. Note, in our subsequent studies with [2'-^14 C]NIC, Peak A was not observed, which is consistent with our interpretation of the results (Table 1).

[3] = GC-MS, Deutsch et al., 1992; cited from earlier work
[4] = i.p. [14C-N-methyl]NIC, HPLRC; cited from earlier work
[5] = test system: N-methyl-D-aspartate(NMDA) receptor; conditions: MK-801 site within the channel; cited from earlier work
[6] = Stolerman et al., 1984; cited from earlier work
[7] = Stolerman et al. (1995), cited from earlier work
[8] = cited from earlier work
[9] = water, ethyl alcohol, ether, chloroform, benzene, ethyl acetate, carbon disulfide; cited from earlier work
[10] = test system: nicotinic receptor sites in the brain; assay: displacement of nicotine from nicotinic receptor sites in the brain; type: binding
[11] = Locomotor activity assay, acute and repeated treatment, S(-) nicotine challenge, saline challenge; type: in vivo, rat; conditions: for behavioral sensitization after repeated administration: 8 injections once every 48 hrs, nicotine 1 mg/kg, R(+) 0.3-10 mg/kg, S(-) nornicotine 10 mg/kg; for enabling of sensitization to S(-) nicotine: repeated R(+) nornicotine, S(-) nicotine challenge
Protocol: (I mg/kg), norNIC (0.3-10 mg/kg) or R(+) norNIC (0.3-10 mg/kg) was administered peripherally (s.c., 8 injections once every 48 hrs) to groups of rats and locomotor activity was assessed for 50 min immediately after each injection.
In the present study, S(-) nicotine (1 mg/kg), R(+) nornicotine (1-10 mg/kg), S(-) nornicotine (1-10 mg/kg), or vehicle (saline) were administered s.c. to groups of rats (n=6) acutely or repeatedly (8 injections once every 48 hrs). Locomotor activity was measured during 50 min sessions immediately following drug or vehicle administration.
Male Sprague-Hawley rats (225-250 g) from Harlan Laboratories were housed two per cage with free access to food and water.
Activity was recorded automatically in a wooden test-chamber measuring 30×28×43 cm high. The chamber had white walls and a wire mesh floor over pine chip bedding. Two photobeams located 4.5 cm above the floor divided the chamber into four equal quadrants. Electromechanical equipment located in an adjacent room recorded photobeam interruptions automatically. A white noise generator provided an ambient 70 dB background noise in the test room in order to minimize extraneous sounds that might influence the animal's behavior in the test chamber. Rats were habituated to the chamber for 50 min on each of three consecutive days.
On the day immediately after the third habituation session, rats were randomly divided into groups (n=6/group) and were administered s.c. either S(-) nicotine (1 mg/kg), R(+) nornicotine (0.3, 1, 3 and 10 mg/kg), or vehicle (saline) to determine acute drug effects on locomotor activity. In a separate experiment, rats (n=6/group) were administered s.c. either S(-) nicotine (1 mg/kg), S(-) nornicotine (0.3, 1, 3 and 10 mg/kg), or vehicle (saline). To determine the effect of repeated drug administration on locomotor activity, drug or vehicle was administered respectively in the test-room once every 48 hrs for a total of 8 injections. After each injection, locomotor activity was recorded during a 50 min session (five 10-min blocks). On the ninth injection day (48 hrs following injection 8), each group of rats was administered a challenge dose (1 mg/kg) of S(-) nicotine in the test-room, and locomotor activity was determined immediately thereafter. On the tenth injection day, each group of rats was administered saline and locomotor activity recorded to determine potential conditioning effects of the repeated drug administration.
Post hoc analysis of pairwise comparisons was performed with Duncan's New Multiple Range test.

Structure (SMILES): CN1C(=O)CC[C@H]1c1cccnc1 [COT, Cotinine]
evoked [3H]overflow ([1]; concentration-dependent): concentration dependent increase | detectability in brain at 18 hrs post-injection ([2]; 18 hrs): still detectable | residence time in the CNS relative to NIC ([2]; rat brain): longer residence time in the CNS than NIC | presence as metabolite in brain ([2]; rat brain, after s.c. radiolabelled NIC): major metabolite of NIC in brain | presence in rat brain after peripheral NIC injection [3]: not found in rat brain | detection in mouse brain [4]: detected

inhibition of NIC-evoked [3H]overflow ([1]; 10 μM NIC, concentration-dependent): robustly inhibited | effect on [3H]DA release itself ([1]; 0.01-100 μM): did not alter [^3 H]DA release itself | inhibition of norNIC-evoked [3H]overflow ([1]; high concentrations (100 μM-3 mM) of norNIC): ineffective in inhibiting | inhibition of norNIC-evoked [3H]overflow ([1]; low concentrations (<100 μM) of norNIC): effectively inhibited | mode of antagonism of norNIC response ([1]; norNIC concentration-response curve): noncompetitive
Structure (SMILES): CNC1(C)C2CCC(C2)C1(C)C (centres unmarked) [MEC, mecamylamine]
NMDA receptor inhibition [5]: noncompetitive inhibitor | effect on nicotine interoceptive cues [6]: blocks nicotine interoceptive cues | block of R(+) norNIC-induced decrease in locomotor activity [7]: blocked

Structure (SMILES): CN1CCCC1=O [N-methyl-2-pyrrolidone]
toxicity ([8]; Ames type assays and chronic exposure studies): not revealed any significant toxicity | irritation or sensitization potential ([8]; animal and human experiments): very little irritation or sensitization potential | miscibility [9]: miscible with water

Structure (SMILES): c1cncc([C@H]2CCCN2)c1 [R(+) nornicotine, R-(+) nornicotine]
release of dopamine from presynaptic terminals ([1]; neuronal tissue): stereoselective and receptor-mediated | displacement of nicotine from nicotinic receptor sites [10]: cause displacement of nicotine | cross-sensitization after chronic nicotine [7]: increased activity, demonstrating cross-sensitization; also recorded: increased activity (i.e., cross-sensitization) | locomotor activity, acute [7]: decreased locomotor activity | cross-sensitization after chronic nicotine ([7]; listed as R(+) norNIC): cross-sensitization to R(+) norNIC was observed | behavioral sensitization after repeated administration [11]: did not produce behavioral sensitization; also recorded: did not result in behavioral sensitization; also recorded: does not | behavioral sensitization after repeated administration ([11]; listed as R(+) norNIC): does not | conditioned response to repeated administration (saline challenge) ([11]; 48 hrs after S(-) nicotine challenge): did not contribute to the observed behavioral sensitization | cumulated locomotor activity after saline challenge ([11]; R(+) experiment, 0.3 mg/kg): 368 ± 39 number of photobeam interruptions/50 min session | cumulated locomotor activity after saline challenge ([11]; R(+) experiment, 1.0 mg/kg): 478 ± 40 number of photobeam interruptions/50 min session | cumulated locomotor activity after saline challenge ([11]; R(+) experiment, 3.0 mg/kg): 498 ± 44 number of photobeam interruptions/50 min session | cumulated locomotor activity after saline challenge ([11]; R(+) experiment, 10 mg/kg): 234 ± 30 number of photobeam interruptions/50 min session | locomotor activity time course ([11]; acute R(+) 0.3 mg/kg): small, but not significant, decreases | locomotor activity time course ([11]; acute R(+) 10 mg/kg, initial 20 min): significantly decreased | locomotor activity time course ([11]; acute R(+) 10 mg/kg, latter part of session): not different from the saline-control group | cumulated locomotor activity vs saline-control ([11]; acute, 0.3 and 10 mg/kg, R(+) experiment): depression in activity | locomotor activity, first 10 min ([11]; acute, R(+) 3 mg/kg s.c.): 125±17 photobeam interruptions | locomotor activity, first 10 min after S(-) nicotine challenge ([11]; repeated R(+) 1 mg/kg): 127±12 photobeam interruptions | locomotor activity, first 10 min after S(-) nicotine challenge ([11]; repeated R(+) 3 mg/kg): 136+32 photobeam interruptions | locomotor activity time course ([11]; repeated R(+) 0.3-10 mg/kg): not different from that of the saline-control group | cumulated locomotor activity after S(-) nicotine challenge ([11]; repeated R(+) 0.3 and 1 mg/kg): not different from the saline-control group | S(-) nicotine-induced stimulation, first 10 min ([11]; repeated R(+) 1-10 mg/kg): significant (P<0.001) and dose-dependent | cumulated locomotor activity after S(-) nicotine challenge ([11]; repeated R(+) 3 and 10 mg/kg): significant increases in activity | enabling of sensitization to S(-) nicotine [11]: enabled sensitization to S(-) nicotine; also recorded: dose-related sensitization to the stimulatory effect of S(-) nicotine | enabling of sensitization to S(-) nicotine ([11]; listed as R(+) norNIC): enabled an enhanced response to NIC challenge | S(-) nicotine-induced stimulation, first 10 min ([11]; repeated, R(+) 0.3 mg/kg): not significant | cumulated locomotor activity vs saline-control ([11]; repeated, R(+) 0.3 mg/kg): decreased significantly | tolerance to depressant effect ([11]; repeated, R(+) 0.3 mg/kg): tolerance did not develop | tolerance to depressant effect ([11]; repeated, R(+) 10 mg/kg): tolerance developed | cumulated locomotor activity vs saline-control ([11]; repeated, R(+) 1, 3 and 10 mg/kg): not different from that of the saline-control group
